Paper PMC4372995 (Journal of the American Chemical Society, 2015)
Read-outs that look alike come from different tables or passages of the source.

Key:
Type in all cases: cell-based
RhlR [1] = molecular target: T1, RhlR (Pseudomonas aeruginosa, UniProt P54292); experiment: RhlR reporter antagonism in E. coli, […] vs […] BHL; conditions: read-out: E. coli / RhlR ^b / antagonism (%) ^g
RhlR [2] = molecular target: T1, RhlR; experiment: RhlR reporter antagonism in E. coli, […] vs […] BHL; conditions: read-out: E. coli / RhlR ^b / antagonism (%) ^g; remark: listed apart in the source
RhlR [3] = molecular target: T1, RhlR; experiment: RhlR reporter agonism in E. coli at […]; conditions: 100 µM

T1 sequence (P54292 whole entry): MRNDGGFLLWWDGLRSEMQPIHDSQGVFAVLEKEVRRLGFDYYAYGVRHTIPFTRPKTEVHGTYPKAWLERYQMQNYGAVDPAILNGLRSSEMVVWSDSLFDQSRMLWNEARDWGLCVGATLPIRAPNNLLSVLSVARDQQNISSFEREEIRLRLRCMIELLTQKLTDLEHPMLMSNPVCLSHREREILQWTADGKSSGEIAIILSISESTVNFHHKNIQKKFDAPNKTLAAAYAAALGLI

Compound: O=C(Cc1ccc(I)cc1)N[C@H]1CCOC1=O [C10]
- inhibition at 100 µM (RhlR [1]): 84%

Compound: O=C(COc1ccc(I)cc1)N[C@H]1CCOC1=O [E22]
- inhibition at 100 µM (RhlR [2]): 74%

Compound: O=C(CCCOc1cccc(Br)c1)NC1CCSC1=O (stereo not drawn) [compound 5, mBTL]
- PAO1 / pyocyanin inhibition (%) (RhlR [3]): 83 % agonism at 100 µM
